Experimental data from PMC10443802, “Targeting a xenobiotic transporter to ameliorate vincristine-induced sensory neuropathy” (JCI Insight, 2023).
Values joined by “and” are separate entries in the source; they are usually repeats but may differ in a detail not shown here. Equal entries are not always repeated.

Legend:
[1] = molecular target: T1, hOATP1B3 (Homo sapiens, UniProt Q9NPD5); assay: Nilotinib uptake in HEK293 cells overexpressing hOATP1B3; format: in vitro ADME; conditions: HEK293 cells overexpressing hOATP1B3 vs vector control
T1 sequence (Q9NPD5 1-702): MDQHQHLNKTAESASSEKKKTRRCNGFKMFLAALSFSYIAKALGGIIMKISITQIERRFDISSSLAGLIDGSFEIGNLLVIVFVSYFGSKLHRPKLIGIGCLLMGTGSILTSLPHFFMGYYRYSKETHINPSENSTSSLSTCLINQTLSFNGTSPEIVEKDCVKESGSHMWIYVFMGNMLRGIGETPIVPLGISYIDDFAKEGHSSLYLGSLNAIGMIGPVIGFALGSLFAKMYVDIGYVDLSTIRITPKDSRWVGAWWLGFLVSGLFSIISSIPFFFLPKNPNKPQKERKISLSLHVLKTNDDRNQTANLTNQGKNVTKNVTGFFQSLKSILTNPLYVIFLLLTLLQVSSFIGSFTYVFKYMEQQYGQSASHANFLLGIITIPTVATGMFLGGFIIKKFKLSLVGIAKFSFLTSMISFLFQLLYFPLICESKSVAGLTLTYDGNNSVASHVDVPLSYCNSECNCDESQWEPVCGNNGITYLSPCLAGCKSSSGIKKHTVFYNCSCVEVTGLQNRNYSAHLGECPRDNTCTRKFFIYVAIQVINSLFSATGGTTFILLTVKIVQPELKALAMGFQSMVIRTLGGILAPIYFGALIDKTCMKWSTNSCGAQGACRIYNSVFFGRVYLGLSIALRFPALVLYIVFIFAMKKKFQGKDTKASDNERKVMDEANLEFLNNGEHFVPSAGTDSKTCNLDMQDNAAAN

[2] = molecular target: T2, mOATP1B2 (Mus musculus, UniProt Q9JJL3); assay: Nilotinib uptake in HEK293 cells overexpressing mOATP1B2; format: in vitro ADME; conditions: HEK293 cells overexpressing mOATP1B2 vs vector control
T2 sequence (Q9JJL3 1-689): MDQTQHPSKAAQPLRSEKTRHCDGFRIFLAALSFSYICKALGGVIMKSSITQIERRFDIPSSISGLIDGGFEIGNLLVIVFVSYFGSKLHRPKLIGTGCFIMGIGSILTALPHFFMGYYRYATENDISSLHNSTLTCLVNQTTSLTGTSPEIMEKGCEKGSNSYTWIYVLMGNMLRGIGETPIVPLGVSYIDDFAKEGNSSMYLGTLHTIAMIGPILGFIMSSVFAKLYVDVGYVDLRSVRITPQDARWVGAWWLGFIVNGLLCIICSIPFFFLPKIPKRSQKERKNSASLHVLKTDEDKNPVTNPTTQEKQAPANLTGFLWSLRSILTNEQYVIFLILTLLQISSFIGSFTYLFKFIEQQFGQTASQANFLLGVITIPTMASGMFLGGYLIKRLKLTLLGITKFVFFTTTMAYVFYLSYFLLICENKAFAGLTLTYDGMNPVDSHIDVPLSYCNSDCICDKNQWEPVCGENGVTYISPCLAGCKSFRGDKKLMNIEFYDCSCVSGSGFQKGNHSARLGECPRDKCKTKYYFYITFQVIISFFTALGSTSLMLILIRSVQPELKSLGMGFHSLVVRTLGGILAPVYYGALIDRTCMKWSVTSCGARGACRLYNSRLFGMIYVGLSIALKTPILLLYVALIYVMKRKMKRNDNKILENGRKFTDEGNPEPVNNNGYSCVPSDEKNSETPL

[3] = molecular target: T2, mOATP1B2; assay: Inhibition of EβG uptake in HEK293 cells overexpressing mOATP1B2; format: cell-based; conditions: HEK293 mOATP1B2; inhibitor 10 μM, 15-min pre-incubation
[4] = molecular target: rASBT (Rattus norvegicus, UniProt Q62633); assay: Vincristine uptake screen, HeLa cells overexpressing rASBT; format: in vitro ADME
Description: (§1) Relative uptake is expressed as percentage change compared with empty vector controls (n = 4–14 per group). […] Human OATP1B1 and OATP1B3 transporter–overexpressed cells were used as positive controls; empty vector controls were used as the negative control. […] Mechanical allodynia (C), thermal hyperalgesia (D), and sciatic nerve maximal action potential amplitudes (E) are expressed as percentage change relative to baseline values (n = 6–8 per group). Statistical analysis was performed using a 2-way ANOVA with Bonferroni’s post hoc test. **P < 0.01, ***P < 0.001, ****P < 0.0001, compared with baseline values. […] Data are shown as mean ± SEM. […]
(§2) transfected with transporters of interest, including hOAT1, hOAT3, hOAT4, hOATP1A2, hOATP3A1, hOATP4A1, hOATP5A1, hOATP1C1, hOATP1B1, hOATP1B3, hOATP2B1, hOCT1, hOCT2, hOCTN1, hOCTN2, hASBT, hNTCP, hNPT1, hMATE1, hOSTα/β, hPEPT1, hPEPT2, rOatp1a1, rOatp1a4, rOatp1a5, rOatp1b2, rNtcp, rAsbt, rOat1, and rOct1. Cells were transfected with expression plasmid or vector control lacking any insert using Lipofectin reagent (Invitrogen). Sixteen hours thereafter, cells were washed with transport media (OPTIMEM, Invitrogen) and treated with radiolabeled drug. […] The cellular radioactivity was quantified by liquid scintillation counting as described above. […]

[5] = system: K562; assay: Cytotoxicity of vincristine with or without nilotinib, MTT assay, K562; format: cell-based; conditions: Homo sapiens, K562, K562 cells, vincristine + 1μM Nilotinib, individual replicates
[6] = system: CCRF; assay: Cytotoxicity of vincristine with or without nilotinib, MTT assay, CCRF; format: cell-based, human; conditions: CCRF cells, vincristine alone, individual replicates
[7] = molecular target: hNPT1 (Homo sapiens, UniProt Q14916); assay: Vincristine uptake screen, HeLa cells overexpressing hNPT1; format: in vitro ADME
Description: as §1, §2

[8] = molecular target: hOCTN1 (Homo sapiens, UniProt Q9H015); assay: Vincristine uptake screen, HeLa cells overexpressing hOCTN1; format: in vitro ADME
Description: as §1, §2

[9] = system: HL-60; assay: Cytotoxicity of vincristine with or without nilotinib, MTT assay, HL-60; format: cell-based, human; conditions: individual replicates
[10] = molecular target: hOATP4A1 (Homo sapiens, UniProt Q96BD0); assay: Vincristine uptake screen, HeLa cells overexpressing hOATP4A1; format: in vitro ADME
Description: as §1, §2

[11] = molecular target: hOATP3A1 (Homo sapiens, UniProt Q9UIG8); assay: Vincristine uptake screen, HeLa cells overexpressing hOATP3A1; format: in vitro ADME
Description: as §1, §2

hOATP3A1, sequence (Q9UIG8 whole entry): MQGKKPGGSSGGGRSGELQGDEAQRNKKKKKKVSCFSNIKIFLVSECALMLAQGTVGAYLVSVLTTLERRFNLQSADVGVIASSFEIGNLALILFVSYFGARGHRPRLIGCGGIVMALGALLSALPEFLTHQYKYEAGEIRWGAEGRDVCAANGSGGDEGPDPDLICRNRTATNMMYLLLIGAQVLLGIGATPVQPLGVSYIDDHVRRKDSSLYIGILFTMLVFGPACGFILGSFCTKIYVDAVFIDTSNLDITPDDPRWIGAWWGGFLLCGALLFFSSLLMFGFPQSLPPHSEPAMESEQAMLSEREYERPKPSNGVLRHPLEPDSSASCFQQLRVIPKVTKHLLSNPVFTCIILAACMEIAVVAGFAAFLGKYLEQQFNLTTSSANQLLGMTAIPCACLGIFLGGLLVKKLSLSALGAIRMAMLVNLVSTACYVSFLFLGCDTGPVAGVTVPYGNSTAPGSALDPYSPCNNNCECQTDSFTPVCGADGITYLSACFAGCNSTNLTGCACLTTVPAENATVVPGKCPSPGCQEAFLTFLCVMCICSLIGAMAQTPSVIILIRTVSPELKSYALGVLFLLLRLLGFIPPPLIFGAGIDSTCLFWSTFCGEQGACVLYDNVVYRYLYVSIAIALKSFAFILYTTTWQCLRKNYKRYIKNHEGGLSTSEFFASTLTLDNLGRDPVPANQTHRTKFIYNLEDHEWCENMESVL
rASBT, sequence (Q62633 whole entry): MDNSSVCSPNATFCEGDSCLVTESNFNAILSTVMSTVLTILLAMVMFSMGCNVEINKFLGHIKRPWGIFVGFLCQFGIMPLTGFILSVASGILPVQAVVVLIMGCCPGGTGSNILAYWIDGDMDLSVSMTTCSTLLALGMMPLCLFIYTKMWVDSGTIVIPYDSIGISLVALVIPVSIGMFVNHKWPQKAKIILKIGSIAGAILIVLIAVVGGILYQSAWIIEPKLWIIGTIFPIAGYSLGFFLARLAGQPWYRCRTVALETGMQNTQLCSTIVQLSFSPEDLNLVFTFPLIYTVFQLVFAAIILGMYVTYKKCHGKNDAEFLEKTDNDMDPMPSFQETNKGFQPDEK
hNPT1, sequence (Q14916 whole entry): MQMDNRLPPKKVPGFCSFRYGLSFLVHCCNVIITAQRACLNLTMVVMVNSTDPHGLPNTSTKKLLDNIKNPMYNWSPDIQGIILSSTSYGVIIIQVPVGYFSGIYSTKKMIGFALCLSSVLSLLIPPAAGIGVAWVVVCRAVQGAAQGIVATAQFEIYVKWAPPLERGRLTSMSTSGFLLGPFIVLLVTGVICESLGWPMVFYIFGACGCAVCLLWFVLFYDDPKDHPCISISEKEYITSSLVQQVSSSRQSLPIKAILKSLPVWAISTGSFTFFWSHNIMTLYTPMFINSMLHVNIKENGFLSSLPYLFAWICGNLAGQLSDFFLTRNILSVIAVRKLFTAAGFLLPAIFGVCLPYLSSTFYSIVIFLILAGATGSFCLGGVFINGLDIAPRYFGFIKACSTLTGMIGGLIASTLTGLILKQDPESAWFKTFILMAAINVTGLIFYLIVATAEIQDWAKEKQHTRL
hOATP4A1, sequence (Q96BD0 whole entry): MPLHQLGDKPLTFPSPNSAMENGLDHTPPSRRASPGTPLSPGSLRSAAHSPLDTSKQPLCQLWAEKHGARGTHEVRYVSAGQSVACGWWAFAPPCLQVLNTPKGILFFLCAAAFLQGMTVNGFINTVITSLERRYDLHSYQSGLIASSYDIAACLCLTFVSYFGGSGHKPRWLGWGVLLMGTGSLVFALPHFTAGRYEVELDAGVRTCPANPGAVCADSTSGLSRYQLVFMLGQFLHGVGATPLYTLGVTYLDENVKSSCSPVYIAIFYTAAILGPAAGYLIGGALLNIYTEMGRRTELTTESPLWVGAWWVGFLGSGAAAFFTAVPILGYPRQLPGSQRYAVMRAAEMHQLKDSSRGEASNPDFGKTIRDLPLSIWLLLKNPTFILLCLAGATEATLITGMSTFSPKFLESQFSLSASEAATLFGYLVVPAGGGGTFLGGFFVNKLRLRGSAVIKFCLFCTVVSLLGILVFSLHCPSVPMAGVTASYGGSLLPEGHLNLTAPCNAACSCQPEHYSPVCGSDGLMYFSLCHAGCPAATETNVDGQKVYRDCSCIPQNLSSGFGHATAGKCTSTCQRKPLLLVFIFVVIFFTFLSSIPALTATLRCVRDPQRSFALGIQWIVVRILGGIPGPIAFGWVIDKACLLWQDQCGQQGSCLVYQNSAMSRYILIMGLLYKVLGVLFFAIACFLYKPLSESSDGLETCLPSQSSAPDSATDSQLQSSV
hOCTN1, sequence (Q9H015 whole entry): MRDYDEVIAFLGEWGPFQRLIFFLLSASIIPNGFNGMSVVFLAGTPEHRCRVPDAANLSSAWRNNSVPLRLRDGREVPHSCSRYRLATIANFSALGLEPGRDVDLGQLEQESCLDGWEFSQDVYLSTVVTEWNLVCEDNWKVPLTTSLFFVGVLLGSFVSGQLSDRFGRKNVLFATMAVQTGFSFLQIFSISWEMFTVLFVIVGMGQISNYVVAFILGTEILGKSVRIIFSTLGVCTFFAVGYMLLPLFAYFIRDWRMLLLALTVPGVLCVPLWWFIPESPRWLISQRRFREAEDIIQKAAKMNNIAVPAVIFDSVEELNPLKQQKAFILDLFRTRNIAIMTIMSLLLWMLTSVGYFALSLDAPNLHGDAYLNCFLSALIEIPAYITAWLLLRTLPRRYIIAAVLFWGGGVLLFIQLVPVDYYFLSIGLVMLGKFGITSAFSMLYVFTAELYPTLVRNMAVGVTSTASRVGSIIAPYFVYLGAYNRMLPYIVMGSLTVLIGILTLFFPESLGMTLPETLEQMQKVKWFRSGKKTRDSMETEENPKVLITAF

SMILES | Nilotinib uptake (% of control) [1] | Nilotinib uptake (% of control) [2] | EβG uptake (% of vehicle) [3] | Vincristine uptake (% of vector control) [4] | IC50 [5] [nM] | IC50 [6] | Vincristine uptake (% of vector control) [7] | Vincristine uptake (% of vector control) [8] | IC50 ([9]; HL-60 cells, vincristine alone) | IC50 ([9]; Homo sapiens, HL-60, HL-60 cells, vincristine + 1μM Nilotinib) [nM] | Vincristine uptake (% of vector control) [10] | Vincristine uptake (% of vector control) [11]
Cc1cn(-c2cc(NC(=O)c3ccc(C)c(Nc4nccc(-c5cccnc5)n4)c3)cc(C(F)(F)F)c2)cn1 [Nilotinib, nilotinib] | 123.521 % of control and 118.661 % of control and 108.968 % of control | 68.9093 % of control and 50.5858 % of control and 83.427 % of control | 37.5921 % of vehicle and 30.8257 % of vehicle and 32.2185 % of vehicle | – | – | – | – | – | – | – | – | –
CC[C@]1(O)C[C@H]2CN(CCc3c([nH]c4ccccc34)[C@@](C(=O)OC)(c3cc4c(cc3OC)N(C=O)[C@H]3[C@@](O)(C(=O)OC)[C@H](OC(C)=O)[C@]5(CC)C=CCN6CC[C@]43[C@@H]65)C2)C1 [Vincristine, vincristine] | – | – | – | 95.00 % of vector control and 78.00 % of vector control and 81.00 % of vector control and 90.00 % of vector control and 114.00 % of vector control and 85.00 % of vector control and 118.00 % of vector control | 17.5 | 4.56 nM and 4.49 nM and 1.65 nM and 7.48 nM and 6.4 nM and 5.53 nM and 3.87 nM and 3.24 nM and 7.33 nM | 120.00 % of vector control and 91.00 % of vector control and 99.00 % of vector control and 72.00 % of vector control and 100.00 % of vector control and 104.00 % of vector control and 113.00 % of vector control | 169.00 % of vector control and 132.00 % of vector control and 109.00 % of vector control and 131.00 % of vector control and 135.00 % of vector control and 167.00 % of vector control and 158.00 % of vector control | 9.13 nM and 3.89 nM and 6.71 nM and 7.31 nM and 6.48 nM and 6.07 nM and 6.3 nM and 8.17 nM and 5.71 nM | 6.98 | 134.00 % of vector control and 105.00 % of vector control and 130.00 % of vector control and 116.00 % of vector control and 108.00 % of vector control and 117.00 % of vector control and 144.00 % of vector control and 140.00 % of vector control | 104.00 % of vector control and 96.00 % of vector control and 76.00 % of vector control and 101.00 % of vector control and 79.00 % of vector control and 120.00 % of vector control and 100.00 % of vector control and 111.00 % of vector control
